Patent publication US20190388490A1, “PLANT EXTRACTIONS, COMPOSITIONS CONTAINING SAME, AND USES THEREOF” (priority 2010, published 2019)

Experiment: Free radical scavenging by ESR with DPPH
Conditions: 100 μg mixed with alcohol solution of DPPH for 2 minutes
Method: The free radical scavenging capacity of the Bacopa monniera extract product was evaluated using spectrophotometric and electron spin resonance (ESR) techniques. ESR is considered to be the least ambiguous method for the detection of free radicals. 2,2-Diphenyl -1-picrylhydrazyl (DPPH) was used as a stable free radical. An alcohol solution of DPPH was mixed with 100 μg of a Bacopa monniera extract product for 2 minutes and then ESR measurements were conducted. Quercetine was used as a positive control for scavenging the free radicals.

O=c1c(O)c(-c2ccc(O)c(O)c2)oc2cc(O)cc(O)c12 [quercetine, Quercetine]
effect on DPPH free radical ESR peak: slight change in peak height
